Results: a melting point compilation (Tetko et al.; mined from patent text by program, amines drawn as free bases though some values may be those of a salt)

| Compound | melting point [°C] |
| --- | --- |
| CC1(CN(c2ccc(Cl)cc2)S(C)(=O)=O)SCCS1 | 114 to 117 |
| Cc1cc(N)c(C)nc1OC(F)F | 38.4 to 39.4 |
| O=Cc1ccc2ccccc2c1OCc1ccccc1 | 62 to 63 |
| CCCCNC(=O)NS(=O)(=O)c1c(C)nn(C)c1OC | 135 to 142 |
| Cc1nc2ccc3c(c2o1)OC(CN1CC=C(c2c[nH]c4ccc(C#N)cc24)CC1)CO3 (configuration not stated) | 119 |
| COC(=O)c1nc(CI)n(-c2ccc(Cl)cc2C(=O)c2ccccc2Cl)n1 | 125 to 128 |
| NNc1c(F)c(F)c(C(F)(F)F)c(F)c1Cl | 91 to 92 |
| CCCCCCCCCCCCCCCNC(=O)OCCOCCOCCOC(=O)N(Cc1ccccn1)C(C)=O | 42 to 43 |
| COc1ccccc1Oc1c(NS(=O)(=O)c2ccc3c(c2)OCO3)nc(-c2ccnc(-c3nnn[nH]3)c2)nc1OCCO | 227 to 229 |
| O=C1N=C2C(=O)SC=C2N1 | 177 to 180 |
| C=C(CCCC(=O)N1CCC[C@@H](C(=O)OC(C)(C)C)N1)C(=O)OCC | 63 to 65 |
| COc1ccc(/C=C(/C#N)c2cccs2)cc1OC1CCCC1 | 100 to 101 |
| CCOC(=O)C(=CN(C)C1(CO)CC1)C(=O)c1c(F)c(F)c(F)c(F)c1F | 74.5 to 76 |
| O=P(O)(O)C(O)(Cc1c[nH]cn1)P(=O)(O)O | > 290 |
| Cc1ccc(C(=O)Nc2c(NC(=O)CN3CCN(CCO)CC3)ccc3c2C(=O)c2ccccc2C3=O)cc1 | 210 to 211 |
| Cc1cc(C)c(N(C)C(=O)CN2C(=O)c3ccccc3C2=O)c(C)c1CO | 254 to 256 |
| Cc1cc(-c2nc3c(C)cc(Cl)nn3c2-c2ccnc(NC(=O)c3ccc(F)cc3)c2)ccc1F | 235 to 236 |
| CCCN(CCC)C(=O)COc1nc(-c2ccccc2)nc(C)c1Br | 107 to 108 |
| CC(C)(C)OC(=O)CN(C(=O)CNC(=O)Nc1ccc(Cl)cc1)c1ccccc1C(=O)c1ccccc1 | 196 to 197 |
| COc1cc(-c2nc(NNC(=O)c3cc4c(C)c(C)ccc4n3CCCC#N)nn2CCC2CCCCC2)c(OC)cc1Cl | 178 |
| CCCCCCCCCCOc1ccc(Cc2cccc(C(=O)O)c2)cc1CCC(=O)O | 146 to 148 |
| O=C1c2cccc(OCc3ccccc3)c2-c2nn(CCNCCO)c3ccc(Cl)c1c23 | 165 to 167 |
| CCOC(=O)c1c(N2CCN(C(=O)c3cccs3)CC2)c2cccnc2n(C)c1=O | 164 |

| Compound | melting point [°C] |
| --- | --- |
| CC(C)CC(=O)Nc1cccc(-c2ccnc3c(-c4cccc(Cl)c4Cl)cnn23)c1 | 154 to 156 |
| c1ccc(C(c2ccccc2)N2CC2)cc1 | 56 to 58 |
| Cc1cc2c(cc1Cl)N(C(=O)CN1CCN(C)CC1)c1ccccc1N(C)S2(=O)=O | 156 to 158 |
| COc1ccc(Cn2c(=O)c(C#N)c(Cl)c3cc(Cl)cnc32)cc1 | 208 |
| COC=C(C(=O)OC)N(C)c1nccc(-c2ccccc2)n1 | 123 to 125 |
| CSc1nnc(C(F)(F)F)n1C | 46 |
| C#CCN(Cc1cc2c(=O)n(C)c(CN(CC)CC)nc2cc1Cl)c1ccc(C(=O)OC(C)(C)C)cc1 | 112 to 113 |
| O=C(Nc1ccc(Cl)cc1)c1cccc(/C=C/c2ccccn2)c1 | 213 |
| CCOC(=O)c1sc2nc(SCCCN3CCN(c4ccc5ccccc5n4)CC3)[nH]c(=O)c2c1C | 200 to 201 |
| COc1ccc(CCNCC(O)c2ccc(OCc3ccccc3)cc2OCc2ccccc2)cc1OC (configuration not stated) | 116 to 117 |
| CCCCCS(=O)(=O)NC(=O)/C=C/c1cc(OCCOC)nn1Cc1ccc(C(F)(F)F)cc1Cl | 130 to 132 |
| N#CCCCOc1ccc(/C=C/C(=O)O)c(Oc2ncc(C(F)(F)F)cc2Cl)c1 | 183 to 185 |
| COc1cc2c(=O)cc(C(=O)O)n(C)c2ccc1=O | > 250 |
| OCC1C(Cl)=Cc2ccccc21 (configuration not stated) | 104 to 105 |
| ClC(=NNc1ccccc1)c1ccc(Cl)cc1Cl | 88.5 to 89.5 |
| CCCCCCCCCCCCCCCCOc1cc(C(=O)O)c(O)c2ccccc12 | 121 to 124 |
| CCOC(=O)C1=C(C(F)(F)F)Nc2n[nH]cc2C1c1ccccc1F (configuration not stated) | 119 to 120 |
| COC(=O)c1cc(N=C2C=CC(=O)C=C2)c(F)c(-c2ccc(Cl)cc2)n1 | 154 to 156 |
| CCOC(=O)NCN1C(=O)CN=C(c2ccccc2Cl)c2cc(Cl)ccc21 | 147 to 149 |
| C[C@H](CNC(=O)c1c(Cl)ccc2nc(N3CCC(C(=O)O)CC3)ccc12)c1ccccc1 | 150 to 153 |
| CCc1ccc2c(OCC(=O)O)c(C(C)C)nn2c1 | 118 to 119 |
| CCSc1nc(N)ccc1[N+](=O)[O-] | 132 |
| CON(C)Cc1nc2c(N)nc3ccccc3c2n1CC1(O)CCC1 | 219 to 221 |

Continued, values first:

| melting point [°C] | Compound |
| --- | --- |
| 130 to 132 | Cn1c(CO)nc2ncccc21 |
| 172 | Cc1cccc(P(=O)(O)c2cccc(C)c2)c1 |
| 128 to 130 | Cc1cc(C2(C(F)(F)F)CC(c3ccc(F)cc3)=NO2)ccc1NC(=O)c1cccc(I)c1C(=O)NC(C)C (configuration not stated) |
| 242 | CC(NC(=O)c1cc2ccccc2[nH]1)C(=O)N(c1ccccc1)c1ccccc1 (racemic) |
| 163 to 165 | O=c1c2cc(F)ccc2nc(NCc2ccccc2F)n1-c1ccccc1Cl |
| 220 | O=C(O)c1cc(=O)c2cc([N+](=O)[O-])ccc2s1 |
| 78 to 85 | C=CCn1c2ccccc2c2c(N)c(C(=O)OC)c(C)nc21 |
| 138 to 139 | COCC(C)n1nc(-c2c(-c3ccccc3)nn3ccc(OC)cc23)ccc1=O (configuration not stated) |
| 235 | O=C(Oc1ccccc1)OC1c2ccccc2C(=O)N1c1ccc2ccc(Cl)nc2n1 (configuration not stated) |
| 172 to 173 | Cc1ccccc1-c1cccc(C=NNC(=S)NN2CCCC2)n1 |
| 235 | CNC(=NC#N)Nc1ccc(C2=NNC(=O)CC2C)cc1 (configuration not stated) |
| 94 to 98 | O=C1c2ccccc2CN1CCC#Cc1ccccn1 |
| 167 to 170 | COC(=O)CCc1cc(O)cc2cc(-c3ccc(O)cc3)oc12 |
| 103 to 106 | C=CCSC(=NC(=O)OC)NC(=O)NC(C)C |
| > 300 | N#Cc1ccccc1Cc1c(-c2ccc(OC(F)F)c(OC3CC3)c2)[nH]c2cn[nH]c(=O)c12 |
| 171 to 173 | COc1cc(F)nc(N)n1 |
| 84 to 86 | Cc1nc(NC(=O)c2cc(F)cc(F)c2)sc1C(=O)NCc1ccccc1 |
| 245 to 247 | NS(=O)(=O)c1cc(C(=O)O)cc([N+](=O)[O-])c1Sc1ccccc1 |
| 167 to 170 | CCOC(=O)c1[nH]c2cc(Cl)cc(Cl)c2c1C(=O)OCC |
| 212 to 214 | O=C(Nc1nc(-c2ccccc2)c(-c2nc3ccccc3c(=O)n2-c2ccccc2Cl)s1)c1ccccc1 |
| 40 to 48 | COc1ccc(CCN2CCC(C(O)c3ccc(NS(C)(=O)=O)cc3)CC2)cc1 (configuration not stated) |
| 111 to 112 | CN(C)CC1=C(Nc2ccccc2)CC(C)(C)CC1=O |
| 217 to 218 | O=C(O)CNC(=O)Nc1cccc([N+](=O)[O-])c1 |
| 27 to 28 | CCCCCCCCCCCCCCCc1cccc(OC)c1 |
| 96 to 97 | C=CCOC(=O)C1=C(C)NC(C)=C(C(=O)OC(C)C)C1c1cccc([N+](=O)[O-])c1 (configuration not stated) |
| 191 to 193 | COc1cc(C(C)C#Cc2c(C)nc(N)nc2N)cc(OC)c1OC (configuration not stated) |

| melting point [°C] | Compound |
| --- | --- |
| 90.6 to 92.4 | CN1CCN(c2nc3sc4c(NCCCN5CCOCC5)ncnc4c3c3c2COC(C)(C)C3)CC1 |
| 228 to 230 | O=C(Nc1ccccn1)c1nc(-c2ccccc2)c2ccccc2c1O |
| 158 to 159 | Cc1cc(NC(=O)Cc2ccccc2)cc(C)c1S(=O)(=O)C[N+](=O)[O-] |
| 140 | CCCC(=O)Nc1n[nH]c2cc(-c3ccc(OCc4ccccc4)cc3)c(-c3ccc(OCc4ccccc4)cc3)cc12 |
| 49 to 52 | CC(=O)C(C)(C)COS(=O)(=O)c1ccc(C)cc1 |
| 155 to 156 | O=C(NCCO)c1cccc(-c2ccc3c(c2)C(Oc2ccc(Cl)cc2Cl)CC3)c1 (configuration not stated) |
| 209 to 210 | O=c1[nH]c(=O)n(CCCCN2CCC(OC(c3ccccc3)c3ccccc3)CC2)c2ccc(Cl)cc12 |
| 72 to 73 | O=[N+]([O-])c1ccc(Oc2ccc([N+](=O)[O-])cc2-c2ccc(C(F)(F)F)cc2C(F)(F)F)c(-c2ccc(C(F)(F)F)cc2C(F)(F)F)c1 |
| 146 to 147 | c1ccc2c(c1)CC(CCN1CCN(c3cccc4[nH]ccc34)CC1)C2 |
| 65 to 66 | CCCCn1c(C)c(C)cc(NC(=O)OCc2ccccc2)c1=O |
| 136 to 137 | Cc1oc(-c2ccccc2)nc1CCOc1ccc(CCCCC2OC(=O)NC2=O)cc1 (configuration not stated) |
| 168 | COc1ccc(-c2ccc(C(=O)Nc3cc4ncc(CN5CCCCCC5)cc4cc3C)c(F)c2)cc1 |
| 198 to 200 | COc1c(Br)ccc2oc(COc3ccc(-c4ccc(S(=O)(=O)NC(C(=O)O)C(C)C)cc4)cc3)c(C)c12 (configuration not stated) |
| 298 to 300 | CC1COc2c(N3CCN(C#N)CC3NC(=N)N)c(F)cc3c(=O)c(C(=O)O)cn1c23 (configuration not stated) |
| 194 to 196 | CC(C)c1n[nH]c2c(NCc3ccccc3Br)ncnc12 |
| > 250 | CCOC(=O)C(C)Oc1ccc(N(C)c2nc(Cl)c3cc(Cl)ccc3n2)cc1 (configuration not stated) |
| 152 to 156 | CON=C1C=C(NC(=O)N(N)CCO)C(Cl)=C(C)C1Cl (configuration not stated) |
| 112 to 113 | C[C@@H](COc1ccc(N2CCN(c3ccncc3)CC2)cc1)CC(=O)OC(C)(C)C |
| 120 to 122 | COCCOC(=O)C1=C(O)c2ccccc2S(=O)(=O)N1 |
| 296 to 302 | Cc1c(-c2ccccc2)[nH]c2ccc(Cl)cc2c1=O |
| 82 to 85 | CN(C)S(=O)(=O)c1cc(N=C=O)ccc1Cl |
| 88 to 90 | CC(C)(C)OC(=O)Cn1cccc(NC(=O)OCc2ccccc2)c1=O |
| 125 to 126 | OCc1cc2ccc3ccc4ccccc4c3c2o1 |
| 149 to 150 | COP(=O)(Cc1cc(C(C)(C)C)c(O)c(C(C)(C)C)c1)C1CCCCC1 (configuration not stated) |
| 310 to 312 | COc1cc2c3c(n(Cc4ccccc4)c(=O)c2cc1OC)-c1cc2c(cc1C3=O)OCO2 |
